Laboratory results published in patent US12122761B2, “2-azaspiro[3.4]octane derivatives as M4 agonists” (NOVARTIS AG, priority 2019, dated 2024).

Legend:
Type in all cases: cell-based
[1] = molecular target: T1, human cloned CHRM2 receptor (M2_CHO cells) (Homo sapiens, UniProt P08172); assay: CHRM2 Ca++ Flux Assay (agonist mode, FDSS 7000EX); settings: for M2 FDSS PA: Percent Activity measured to EC100 of Carbachol
T1 construct: expressed in transfected cells; host or cells: CHO-K1
T1 sequence (P08172 1-466): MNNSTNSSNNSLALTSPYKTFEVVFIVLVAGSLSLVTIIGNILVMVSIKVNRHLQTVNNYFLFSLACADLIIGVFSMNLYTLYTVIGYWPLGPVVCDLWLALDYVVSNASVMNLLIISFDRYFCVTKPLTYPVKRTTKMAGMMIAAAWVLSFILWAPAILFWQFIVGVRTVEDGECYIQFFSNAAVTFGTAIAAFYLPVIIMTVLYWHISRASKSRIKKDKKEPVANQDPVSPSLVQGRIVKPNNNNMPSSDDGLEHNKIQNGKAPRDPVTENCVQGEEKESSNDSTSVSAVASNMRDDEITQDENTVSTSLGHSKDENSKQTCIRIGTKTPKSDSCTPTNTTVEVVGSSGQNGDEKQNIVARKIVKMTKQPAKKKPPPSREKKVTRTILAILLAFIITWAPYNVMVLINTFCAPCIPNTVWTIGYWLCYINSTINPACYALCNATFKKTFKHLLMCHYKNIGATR
Method: The above examples were characterized by measuring the intracellular mobilization of Ca++ ions caused by signaling events mediated by the receptor. The Intra-cellular Calcium flux levels were captured by the highly sensitive Ca++ indicator, Calcium Assay Kit (BD Biosciences, Catalog Number 640178). The fluorescent activity from all receptors were monitored by the fluorescent imager, FDSS 7000EX (Hamamatsu) over a span of 3 minutes.
CHO-K1 cells stably expressing the human cloned CHRM2 receptor (M2_CHO cells) were grown and maintained in a monolayer culture with F12/HAM (Life Technologies) supplemented with 10% Fetal Bovine Serum, 1× Pen-Strep, and 0.4 mg/mL Geneticin in a humidified atmosphere (5% CO2) at 37° C. The cultures were grown to 80-9 0% confluency in T150 flasks (Corning) and washed with 1×DPBS and lifted with 0.05% Trypsin (Life Technologies). The cells were then spun (1K rpm, 3 minutes) and frozen using Recovery Cell Culture Freezing Media (Gibco Technologies). Cells were stored in liquid nitrogen and thawed a day before the assay.
Prior to the day of the assay, stable M2 CHO cells were thawed and plated on Greiner 384 well TC treated plate at a density of 12K cells/well and kept overnight in a humidified atmosphere (5% CO2) at 37° C. The following day, the cells were loaded with Ca^++ dye (BD Biosciences) using Loading Buffer (HBSS +Ca/+Mg, 20 mM HEPES, 2.5 mM Probenecid) and placed back in cell incubator for a minimum of 1 hour and maximum of 2 hours. After incubation, the dye was replaced with Assay Buffer (HBSS −Ca/−Mg, 20 mM HEPES, 2.5 mM Probenecid) supplemented with 20 μM ATP (Sigma Aldrich) and kept at room temperature for 60 minutes prior before running on cell imager. The FDSS 7000EX (Hamamatsu) was used to acquire Ca^++ traces from cells in response to compound treatment and the data was used to generate dose response curves in agonist mode. All compounds were serially diluted in DMSO then prepared in Assay Buffer for Ca^++ flux studies. The dose response curves were generated from the average of triplicate wells obtained from each data point and used a non-linear regression of four parameter dose response algorithm. The Percent Activity (PA) was measured to EC100 of Carbachol.

[2] = molecular target: T2, human cloned CHRM3 receptor (M3_CHO cells) (Homo sapiens, UniProt P20309); assay: CHRM3 Ca++ Flux Assay (agonist mode, FDSS 7000EX); settings: for M3 FDSS PA: Percent Activity measured to EC100 of Carbachol; for EC50: agonist mode, geometric mean if tested more than once, read-out: M3 FDSS EC50
T2 construct: expressed in transfected cells; host or cells: CHO-K1
Method in brief: (§1)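 Agonist-mode calcium flux: 11-point dose responses, triplicate wells, fluorescence followed for 3 minutes. Cells are M3_CHO or M5_CHO lines (human receptors) with Ca++ indicator in probenecid-containing HEPES/HBSS buffer. Percent activity is referenced to carbachol EC100, and curves come from four-parameter nonlinear regression.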

[3] = molecular target: T3, human cloned CHRM5 receptor (M5_CHO) (Homo sapiens, UniProt P08912); assay: CHRM5 Ca++ Flux Assay (agonist mode, FDSS 7000EX); settings: for M5 FDSS PA: Percent Activity measured to EC100 of Carbachol; for EC50: agonist mode, geometric mean if tested more than once, read-out: M5 FDSS EC50
T3 construct: expressed in transfected cells; host or cells: CHO (M5_CHO)
T3 sequence (P08912 1-532): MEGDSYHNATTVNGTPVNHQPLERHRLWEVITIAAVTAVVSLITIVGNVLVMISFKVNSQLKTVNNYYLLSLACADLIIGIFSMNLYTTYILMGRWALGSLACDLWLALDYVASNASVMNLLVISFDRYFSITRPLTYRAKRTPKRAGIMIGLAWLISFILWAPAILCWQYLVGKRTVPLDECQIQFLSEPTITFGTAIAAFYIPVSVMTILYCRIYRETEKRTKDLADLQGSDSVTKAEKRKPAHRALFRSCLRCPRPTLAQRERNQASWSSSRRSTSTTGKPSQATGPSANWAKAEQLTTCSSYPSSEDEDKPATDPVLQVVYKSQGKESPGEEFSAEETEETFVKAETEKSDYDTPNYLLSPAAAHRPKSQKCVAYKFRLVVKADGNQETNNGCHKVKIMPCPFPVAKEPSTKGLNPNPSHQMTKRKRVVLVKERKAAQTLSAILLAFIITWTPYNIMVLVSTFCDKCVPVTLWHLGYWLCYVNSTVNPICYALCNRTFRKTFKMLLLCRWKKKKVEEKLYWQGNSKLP
Method in brief: as §1

T2 sequence (P20309 whole entry): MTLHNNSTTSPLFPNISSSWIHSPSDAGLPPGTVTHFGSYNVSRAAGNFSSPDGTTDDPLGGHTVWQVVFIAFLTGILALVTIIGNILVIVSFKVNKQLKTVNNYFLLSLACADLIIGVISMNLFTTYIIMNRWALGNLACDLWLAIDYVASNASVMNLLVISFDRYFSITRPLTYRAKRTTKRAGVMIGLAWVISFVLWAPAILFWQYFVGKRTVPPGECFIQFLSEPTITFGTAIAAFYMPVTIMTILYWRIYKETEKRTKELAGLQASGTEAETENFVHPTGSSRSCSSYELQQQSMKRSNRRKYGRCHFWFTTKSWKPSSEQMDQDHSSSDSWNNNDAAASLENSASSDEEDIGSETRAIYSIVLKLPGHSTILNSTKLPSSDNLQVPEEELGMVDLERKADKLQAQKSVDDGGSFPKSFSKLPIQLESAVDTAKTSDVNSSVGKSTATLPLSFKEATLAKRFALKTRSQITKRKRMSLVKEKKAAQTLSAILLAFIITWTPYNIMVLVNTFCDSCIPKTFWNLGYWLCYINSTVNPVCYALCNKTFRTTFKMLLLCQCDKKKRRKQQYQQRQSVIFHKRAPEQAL

Compound | M2 FDSS PA [1] | EC50 ([1]; agonist mode, geometric mean if tested more than once, read-out: M2 FDSS EC50) | M3 FDSS PA [2] | EC50 [2] | M5 FDSS PA [3] | EC50 [3]
O=C(N1CC2(CC[C@@H](N3CCC(c4ccccc4OCC4CC4)CC3)C2)C1)C1(F)CC1 (single isomer, unassigned) [Example 7T, (R)-(6-(4-(2-(cyclopropylmethoxy)phenyl)piperidin-1-yl)-2-azaspiro[3.4]octan-2-yl)(1-fluorocyclopropyl)methanone or (R)-(6-(4-(2-(cyclopropylmethoxy)phenyl)piperidin-1-yl)-2-azaspiro[3.4]octan-2-yl)(1-fluorocyclopropyl)methanone] | 19% | 18.6 µM | 0% | > 25 µM | 0% | > 25 µM
Cc1noc(C)c1COc1ccccc1C1CCN([C@@H]2CCC3(C2)CN(C(=O)C2(F)CC2)C3)CC1 (single isomer, unassigned) [Example 7U, (R)-(6-(4-(2-((3,5-dimethylisoxazol-4-yl)methoxy)phenyl)piperidin-1-yl)-2-azaspiro[3.4]octan-2-yl)(1-fluorocyclopropyl)methanone or (S)-(6-(4-(2-((3,5-dimethylisoxazol-4-yl)methoxy)phenyl)piperidin-1-yl)-2-azaspiro[3.4]octan-2-yl)(1-fluorocyclopropyl)methanone] | 0% |  | 0% | > 25 µM | 0% | > 25 µM
Cc1ncc(COc2ccccc2C2CCN([C@@H]3CCC4(C3)CN(C(=O)C3(F)CC3)C4)CC2)o1 (single isomer, unassigned) [Example 7V, (R)-(1-fluorocyclopropyl)(6-(4-(2-((2-methyloxazol-5-yl)methoxy)phenyl)piperidin-1-yl)-2-azaspiro[3.4]octan-2-yl)methanone or (S)-(1-fluorocyclopropyl)(6-(4-(2-((2-methyloxazol-5-yl)methoxy)phenyl)piperidin-1-yl)-2-azaspiro[3.4]octan-2-yl)methanone] | 0% |  | 0% | > 25 µM | 0% | > 25 µM
Cc1nnc(COc2ccccc2C2CCN([C@@H]3CCC4(C3)CN(C(=O)C3(F)CC3)C4)CC2)o1 (single isomer, unassigned) [Example 7W, (R)-(1-fluorocyclopropyl)(6-(4-(2-((5-methyl-1,3,4-oxadiazol-2-yl)methoxy)phenyl)piperidin-1-yl)-2-azaspiro[3.4]octan-2-yl)methanone or (S)-(1-fluorocyclopropyl)(6-(4-(2-((5-methyl-1,3,4-oxadiazol-2-yl)methoxy)phenyl)piperidin-1-yl)-2-azaspiro[3.4]octan-2-yl)methanone] | 0% |  | 0% | > 25 µM | 8% | 0.077 µM
Cc1nc(COc2ccccc2C2CCN([C@@H]3CCC4(C3)CN(C(=O)C3(F)CC3)C4)CC2)no1 (single isomer, unassigned) [Example 7X, (R)-(1-fluorocyclopropyl)(6-(4-(2-((5-methyl-1,2,4-oxadiazol-3-yl)methoxy)phenyl)piperidin-1-yl)-2-azaspiro[3.4]octan-2-yl)methanone or (S)-(1-fluorocyclopropyl)(6-(4-(2-((5-methyl-1,2,4-oxadiazol-3-yl)methoxy)phenyl)piperidin-1-yl)-2-azaspiro[3.4]octan-2-yl)methanone] | 0% |  | 0% | > 25 µM | 9% | 0.071 µM
Cc1nnc(COc2ccccc2C2CCN([C@@H]3CCC4(C3)CN(C(=O)C3(F)CC3)C4)CC2)o1 (single isomer, unassigned) [Example 7Y, (R)-(1-fluorocyclopropyl)(6-(4-(2-((5-methyl-1,3,4-oxadiazol-2-yl)methoxy)phenyl)piperidin-1-yl)-2-azaspiro[3.4]octan-2-yl)methanone or (S)-(1-fluorocyclopropyl)(6-(4-(2-((5-methyl-1,3,4-oxadiazol-2-yl)methoxy)phenyl)piperidin-1-yl)-2-azaspiro[3.4]octan-2-yl)methanone] | 0% |  | 0% | > 25 µM | 0% | > 25 µM
Cc1nc(COc2ccccc2C2CCN([C@@H]3CCC4(C3)CN(C(=O)C3(F)CC3)C4)CC2)no1 (single isomer, unassigned) [Example 7Z, (R)-(1-fluorocyclopropyl)(6-(4-(2-((5-methyl-1,2,4-oxadiazol-3-yl)methoxy)phenyl)piperidin-1-yl)-2-azaspiro[3.4]octan-2-yl)methanone or (S)-(1-fluorocyclopropyl)(6-(4-(2-((5-methyl-1,2,4-oxadiazol-3-yl)methoxy)phenyl)piperidin-1-yl)-2-azaspiro[3.4]octan-2-yl)methanone] | 0% |  | 0% | > 25 µM | 0% | > 25 µM
COc1ccc(Cl)cc1C1CCN([C@H]2CCC3(C2)CN(C(=O)C2(F)CC2)C3)CC1 (single isomer, unassigned) [Example 8A, (S)-(6-(4-(5-chloro-2-methoxyphenyl)piperidin-1-yl)-2-azaspiro[3.4]octan-2-yl)(1-fluorocyclopropyl)methanone or (R)-(6-(4-(5-chloro-2-methoxyphenyl)piperidin-1-yl)-2-azaspiro[3.4]octan-2-yl)(1-fluorocyclopropyl)methanone] | 0% |  | 0% | > 25 µM | 0% | > 25 µM
COc1ccc(Cl)cc1C1CCN([C@H]2CCC3(C2)CN(C(=O)C2(F)CC2)C3)CC1 (single isomer, unassigned) [Example 8B, (S)-(6-(4-(5-chloro-2-methoxyphenyl)piperidin-1-yl)-2-azaspiro[3.4]octan-2-yl)(1-fluorocyclopropyl)methanone or (R)-(6-(4-(5-chloro-2-methoxyphenyl)piperidin-1-yl)-2-azaspiro[3.4]octan-2-yl)(1-fluorocyclopropyl)methanone] | 0% |  | 0% | > 25 µM | 0% | > 25 µM
